# From patent US7846434B2, “Materials and methods for improved immunoglycoproteins” (Trubion Pharmaceuticals, Inc., priority 2006, dated 2010)
# Several values for one entry are separate records, joined by “and”; a condition that tells them apart may be missing. Equal entries are not always repeated.
# Columns and labels:
# BJAB B cells = assay: ADCC, 51Cr-labeled BJAB B cells with human PBMC effectors; assay type: cell-based
# Procedure: To determine the ADCC activity of purified TRU-016, labeled BJAB B cells were used as targets and human peripheral blood mononuclear cells (PBMC) as effector cells. BJAB B cells (10^7 cells) were labeled with 500 μCi/mL ^51Cr sodium chromate for 2 hours at 37° C. in IMDM/10% FBS. PBMCs were isolated from heparinized, human whole blood by fractionation over Lymphocyte Separation Media (LSM, ICN Biomedical) gradients. Reagent samples were added to RPMI media with 10% FBS and serial dilutions of each reagent were prepared. The ^51Cr labeled BJAB were added at 2×10^4 cells/well. The PBMCs were then added at 5×10^5 cells/well for a final ratio of 25:1 effectors (PBMC):targets (BJAB). Reactions were set up in quadruplicate wells of a 96 well plate. Reactions were allowed to proceed for 6 hours at 37° C. in 5% CO2 prior to harvesting and counting. CPM released was measured on a Packard TopCounNXT from 50 μl dried culture supernatant. Percent specific killing was calculated by subtracting (cpm [mean of quadruplicate samples] of sample−cpm spontaneous release)/(cpm maximal release−cpm spontaneous release)×100, and data were plotted as % specific killing versus TRU-016 concentration.
# [1] = tested on: DG44 CHO cells transfected with TRU-016; assay: Effect of castanospermine on DG44 CHO TRU-016 production, 3 L bioreactors; assay type: cell-based, Chinese hamster; details: for TRU-016 Produced as a % of Control: control average 427.7 ug/mL; for Viability at Harvest (%): harvest day 8
# Procedure: Prior to growth in bioreactors, DG44 CHO cells transfected with TRU-016 were grown in the absence of castanospermine in vented shake flasks as described in Example 8.
# For the bioreactor run, 3 L Applikon bioreactors were used. Growth media for cells was as described in Example 8 except that there was no methotrexate present. Starting culture volume for each bioreactor was 1700 mLs with a starting density of 3.5×10^5 cells/mL. A total of eight bioreactors were run in pairs with CS at 0 μM, 300 μM, 350 μM and 400 μM final concentration (one of the 400 μM CS bioreactors was lost to contamination on day 2 of culture). Castanospermine was added at the initiation of culture in the bioreactors with no further addition during the culture period. Other culture conditions included a temperature set point of 37° C., pH set point of 6.9 and dissolved O2 set point of 50%. Bioreactors were run in a fed-batch mode with L-glutamine and glucose added on an as needed basis. Soy hydrolysate (CHO Feed Bioreactor Supplement—C1615—Sigma) was added at 1% of starting culture volume on days 2, 4 and 6. Bioreactors were sampled daily for viable cell density, percent viable cells, media chemistries and osmolality. All cultures were harvested on day 8 when overall cell viability ranged from 39-50%.
# [2] = tested on: CHO cells expressing TRU-016; assay: Growth and viability of CHO cells expressing TRU-016 cultured with carbohydrate modifier; assay type: cell-based, Chinese hamster; details: castanospermine up to 1000 μM, up to 144 hours
# Procedure: For shake flask runs, log phase host cells were seeded in shake flasks at 100,000 cells/ml with carbohydrate modifier at the concentration to be tested, and optionally with methotrexate (MTX) @ 50 nM.
# Cells were seeded at 3×10^6/mL in 1350 mL of Ex-Cell 302 culture media (SATC Biosciences; with added non-essential amino acids, pyrucate, L-glutamine, pen/strep, HT Supplement and insulin, all from Invitrogen) at t=0 and brought to 5 L total volume at T>=72 hours. The cells were incubated at 37° C. and 5% carbon dioxide and monitored for growth and viability daily starting at day 6-7. Supernatants were typically harvested at day 10-12 when cell viability dropped below 60%.
# Na-Azide was added to 0.02%, cells were removed by centrifugation and supernatant was filter sterilized through a 0.22 uM filter. Some assays described in other examples herein were performed on the supernatants as indicated, while other assays were performed on material that underwent further protein A purification. […] Cells were incubated at 37° C. and 5% carbon dioxide and monitored daily for growth and viability. […]
# CD16 (Fcγ RIII) = assay: Binding of SMIP bound on WIL2-S cells to soluble FcγR-MIg fusion (CD16), flow cytometry
# Procedure: The assays were carried out as follows. […] The cells were then incubated with the desired FcγR-MIg fusion in the same diluent at a concentration of 1 μg/ml on ice for 45 minutes.
# The complexes (WIL2-S cells/SMIP/FcγR-MIg) were then incubated with PE conjugated AffiniPure F(Ab′)2 Goat Anti-Mouse IgG [Jackson Immunoresearch] (a mouse Fc-specific antibody with minimal cross reactivity with human Fc) at a 1:100 dilution. The cells were analyzed by one-color flow cytometry on a FACsCalibur using CellQuest software (Becton Dickinson).
# If TRU-016 supernatants from Example 2 were used in this assay instead of purified TRU-016 protein, the SMIP concentration in the supernatant was quantified by direct staining of WIL2-S cells with diluted supernatant along with a TRU-016 standard. TRU-016 was detected by staining with FITC conjugated F(Ab′)2 Goat Anti-Human (gamma) [Caltag H10101] at a 1:50 dilution.
compound,measurement,setting,value
O[C@H]1[C@H](O)[C@@H](O)CN2CC[C@H](O)[C@H]12 [castanospermine],ADCC activity of TRU-016 purified protein (% specific killing),"BJAB B cells; 0, 10, 25, 50, 100 or 200 μM castanospermine in culture media",dose-dependent increase
same,ADCC activity of TRU-015 purified protein (% specific killing),"BJAB B cells; 0-100 μg/mL castanospermine in culture media, PBMC from high affinity (V/V158) and low affinity (F/F158) CD16 donors",dose-dependent increase
same,ADCC of TRU-016 purified protein (% specific killing),"BJAB B cells; culture media containing 200 μM DMJ, 10 μM kifenunsine or 200 μM castanospermine",improved
same,TRU-016 Produced as a % of Control,"[1]; CS 300 μM, listed as CS",68.0% and 75.1%
same,Viability at Harvest (%),"[1]; CS 300 μM, listed as CS",48.8% and 42.4%
same,ICA (10^6 cells * days/mL),"[1]; CS 300 μM, listed as CS",47.5 10^6 cells * days/mL and 46.2 10^6 cells * days/mL
same,Specific Productivity (pg/cell/day),"[1]; CS 300 μM, listed as CS",6.12 pg/cell/day and 6.96 pg/cell/day
same,TRU-016 Produced,"[1]; CS 300 μM, listed as CS",291.0 µg/mL and 321.3 µg/mL
same,TRU-016 Produced as a % of Control,"[1]; CS 350 μM, listed as CS",73.6% and 74.4%
same,Viability at Harvest (%),"[1]; CS 350 μM, listed as CS",39.0% and 41.6%
same,ICA (10^6 cells * days/mL),"[1]; CS 350 μM, listed as CS",46.6 10^6 cells * days/mL and 45.5 10^6 cells * days/mL
same,Specific Productivity (pg/cell/day),"[1]; CS 350 μM, listed as CS",6.75 pg/cell/day and 7.00 pg/cell/day
same,TRU-016 Produced,"[1]; CS 350 μM, listed as CS",314.7 µg/mL and 318.1 µg/mL
same,ICA (10^6 cells * days/mL),[1]; CS 400 μM,47.9 10^6 cells * days/mL
same,Specific Productivity (pg/cell/day),[1]; CS 400 μM,6.49 pg/cell/day
same,TRU-016 Produced,[1]; CS 400 μM,311.0 µg/mL
same,TRU-016 Produced as a % of Control,[1]; CS 400 μM,72.7%
same,Viability at Harvest (%),[1]; CS 400 μM,50.4%
same,suppression of TRU-016 production relative to non-treated control bioreactors,[1]; CS 300-400 μM,24.9-32%
same,cell growth and viability in the bioreactors,[1]; CS 300-400 μM vs no CS,quite comparable
same,cell counts,[2],did not affect
same,percent cell viability,[2],did not affect
same,CD16 binding of Protein A-purified TRU-016 (mean fluorescence intensity),"CD16 (Fcγ RIII); CHO cells cultured with 0, 10, 25, 50, 100 or 200 μM castanospermine",dose-dependent increase
same,CD16 binding of TRU-015 purified protein (geometric mean fluorescence intensity),"CD16 (Fcγ RIII); low affinity allele, CHO cells cultured with 0, 2, 5, 10, 30 or 100 μg/mL castanospermine",dose-dependent increase
